Consider two molecules from patent publication US10654834B2 (Venenum Biodesign, LLC, priority 2016, dated 2020).

Common to all, as to assay type: in vivo, mouse
Experiment [1] deals with blood glucose. The experiment is described as follows: OGTT and insulin measurements after 5 weeks of dosing in DIO mice. An excerpt: In the next series of studies (Examples 93-99), Male DIO mice were received at 12 weeks of age (from Taconic), and were single-housed at the testing facility and acclimated for at least 2 weeks. The mice were provided a high fat diet [Research Diet D12492 (60% Fat kcal)] while in the testing facility. Before the study initiation, the animals were randomized into 5 experimental groups by body weight. The vehicle group contained only 0.5% carboxymethylcellulose (medium viscosity)+0.25% Tween-80. The second group contained 10 mg/kg of the DPP-IV inhibitor Sitagliptin while the third group contained 30 mg/kg Compound 268. The fourth group contained the combination of 10 mg/kg Sitagliptin and 30 mg/kg Compound 268. The fifth group was the positive control for weight loss, Rimonabant. All mice were dosed BID at approximately 6:00 am and again at approximately 4:00 pm. The positive control rimonabant was administered at a dose of 10 mg/kg in the afternoon and the morning dosing was vehicle (no compound). […]
Compounds of the present invention were dosed for multiple weeks and were evaluated for their effectiveness in glycemic control. […] Insulin is also analyzed using Meso Scale Discovery according to the manufacturer's directions (item number K152BZC). Plasma samples ([…]) were loaded in duplicate onto the assay plate and measured against internal standards.

In experiment [2] the test system is GLP-1. Description: GLP-1 levels after chronic dosing (5 days) in DIO mice. To be noted: 30 mg/kg + sitagliptin 10 mg/kg p.o., after dose 2 and dose 10 (5 days), versus sitagliptin alone. The protocol:
GLP-1 Levels after Chronic Dosing of Compounds
The chronic dosing of compounds of the present invention was evaluated to determine if they produce sustained GLP-1 levels.
Male DIO mice were received at 12 weeks of age (from Taconic), and were single-housed at the testing facility and acclimated for at least 2 weeks. The mice were provided a high fat diet [Research Diet D12492 (60% Fat kcal)] while in the testing facility. Before the study initiation, the animals were randomized into 18 experimental groups by body weight. The first 10 groups were administered with sitagliptin alone at 10 mg/kg or sitagliptin (10 mg/kg)+Compound 268 at 30 mg/kg by oral gavage and then again 14 hours later (except for one sitagliptin treated and one sitagliptin+Compound 268 treated groups that were euthanized 14° hours after the first dose). The remaining mice were euthanized at 3, 6, or 9 hours after the second dose to collect blood for GLP-1 measurements and bile weights. The remaining 8 groups were administered by oral gavage with sitagliptin alone at 10 mg/kg or sitagliptin (10 mg/kg)+Compound 268 at 30 mg/kg every 10 or 14 hours for 5 days. […] The active form of GLP-1 [GLP-1 (7-36) amide] was analyzed using Meso Scale Discovery System according to the manufacturer's instruction. […]

For experiment [3], the system named is blood glucose. Description: Oral glucose tolerance test (OGTT) in C57BL/6NTac mice. The protocol:
Oral Glucose Tolerance Test (OGTT)
Compounds of the present invention were tested to determine if they could decrease blood glucose levels in mice after glucose administration (i.e., effective in glycemic control). In this study, we orally administered a standard dose of glucose to mice and measured glucose levels in circulating blood at several defined time points after the glucose administration.
8-12 week old male C57BL/6NTac (Taconic) mice were fasted overnight. On the morning of the experiment, the mice were weighed and divided into experimental groups (n=8) assigned by randomizing mice based on baseline blood glucose levels. Following group assignments, mice were dosed with 3 mg/kg sitagliptin or PBS as vehicle control via oral gavage (5 mL/kg) exactly 1 hour before oral gavage dosing of compound (30 mg/kg) or vehicle (0.5% carboxymethylcellulose (medium viscosity)+0.25% Tween −80) at a volume of 10 mL/kg. Time zero blood glucose levels were measured 4 hours after compound or vehicle dosing. Immediately following time zero blood glucose level measurement, mice were gavaged with 2 g/kg of glucose. […] AUC were calculated and data analyzed using one-way ANOVA followed by Dunnett's post-test in GraphPad Prism (FIG. 2). […]

In experiment [4] the test system is GLP-1. Description: GLP-1 measurement at end of OGTT in C57BL/6NTac mice. The conditions noted are these: for blood GLP-1 level after OGTT, combination with sitagliptin: 30 mg/kg + sitagliptin 3 mg/kg p.o. The protocol:
Immediately after the last blood glucose measurement (i.e., 120 minutes after the glucose administration), the blood was collected via cardiac puncture for GLP-1 measurements. The collected blood (200-250 μL) was placed in an EDTA K^2+ tube containing 5 μL of 40 mg/mL aprotinin (Sigma A1153) and 1 μL of 10 mM sitagliptin (Sigma S8576) and plasma was separated by centrifugation. Plasma samples were stored at −20° C. until analysis. The active form of GLP-1 [GLP-1 (7-36) amide] was analyzed using Meso Scale Discovery System according to the manufacturer's directions (item number K150HYC). […] A synergy between the Compound 56 and sitagliptin is also observed (FIG. 3). Values of p<0.01 and <0.001 are considered statistically significant.
FIG. 4 depicts blood glucose measurements at 15, 30, 60, 90, and 120 min following glucose gavage. FIG. 5 depicts AUC data after glucose gavage. FIG. 6 depicts the blood GLP-1 levels comparing mice treated with a DPP-4 inhibitor (i.e., sitagliptin) to mice treated with Compound 268+a DPP-4 inhibitor (i.e., sitagliptin).

As for `N#Cc1ccc(CCNC(=O)[C@@H]2CCN2c2cc(N3CCC(CCNC(=O)NCCC(=O)O)CC3)nc(C(F)(F)F)n2)cc1` [Compound 268, (S)-3-(3-(2-(1-(6-(2-((4-cyanophenethyl)carbamoyl)azetidin-1-yl)-2-(trifluoromethyl)pyrimidin-4-yl)piperidin-4-yl)ethyl)ureido)propanoic acid], the “glucose levels in OGTT after 5 weeks of dosing” value in the experiment with blood glucose [1] (30 mg/kg + sitagliptin 10 mg/kg BID, versus vehicle) is “reduced the glucose levels relative to vehicle”. Moreover, the “insulin levels in OGTT after 5 weeks of dosing” value with blood glucose [1] (BID dosing) was “increased the sensitivity of the mice to insulin”. Further, the “plasma GLP-1 level after chronic dosing” value with GLP-1 [2] is “significantly increased level of GLP-1”. For the same molecule, in the experiment on blood glucose [3] (30 mg/kg + sitagliptin 3 mg/kg p.o. versus sitagliptin alone), the “blood glucose levels in OGTT, combination with sitagliptin” value is “effectively reduced blood glucose levels throughout the time period measured”. The “blood GLP-1 level after OGTT, combination with sitagliptin” value in the experiment on GLP-1 [4] was “induced GLP-1 production”.

Consider `N#Cc1ccc(CCNC(=O)[C@@H]2CCCN2c2cc(N3CCC(CCC(=O)NCCS(=O)(=O)O)CC3)nc(C(F)(F)F)n2)cc1` [Compound 56, (S)-2-(3-(1-(6-(2-((4-cyanophenethyl)carbamoyl)pyrrolidin-1-yl)-2-(trifluoromethyl)pyrimidin-4-yl)piperidin-4-yl)propanamido)ethanesulfonic acid], for which the “blood glucose levels in OGTT” value in the experiment on blood glucose [3] (30 mg/kg p.o. 4 h before 2 g/kg glucose, 15-120 min) is given as “effectively reduced blood glucose levels throughout the time period measured”. Besides, the “blood GLP-1 level after OGTT, combination with sitagliptin” value in the experiment on GLP-1 [4] is on record as “synergy”. Besides, the “blood GLP-1 level after OGTT” value with GLP-1 [4] (30 mg/kg p.o., 120 min after glucose) is reported as “increased GLP-1 level”.
